# Measurements reported in patent publication US8192962B2, “Processes for detecting toxic substances” (Daikin Industries, Ltd., priority 2001, dated 2012).
# Test system: Energy system protein genes
# Test: DNA chip mRNA expression in yeast, energy system protein genes (Table 4)
# Assay type: cell-based, Saccharomyces cerevisiae S288C
# Outline: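 S. cerevisiae S288C grown at 25° C in YPD were exposed in log phase for two hours to one toxic chemical at a growth-inhibiting, non-lethal concentration; untreated cells served as control. Poly(A) mRNA was reverse-transcribed with Cy3/Cy5-dUTP and hybridized to a whole-genome yeast DNA chip at 65° C for over 12 hours; values are fluorescence ratios versus untreated.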
smiles,measurement,setting,value
"CCCCCCCCCCCCc1ccc(S(=O)(=O)[O-])cc1.[Na+] [(17), sodium dodecylbenzosulfonate]",The level of expressed mRNA in the presence of chemical substance/The level of expressed mRNA in the absence of chemical substance,yeast gene YAL060W,1.1
same,The level of expressed mRNA in the presence of chemical substance/The level of expressed mRNA in the absence of chemical substance,"yeast gene YBL058W, cells incubated two hours with the chemical substance",1.0
same,The level of expressed mRNA in the presence of chemical substance/The level of expressed mRNA in the absence of chemical substance,"yeast gene YBL099W, cells incubated two hours with the chemical substance",0.7
same,The level of expressed mRNA in the presence of chemical substance/The level of expressed mRNA in the absence of chemical substance,"yeast gene YBR001C, cells incubated two hours with the chemical substance",1.0
same,The level of expressed mRNA in the presence of chemical substance/The level of expressed mRNA in the absence of chemical substance,"yeast gene YBR185C, cells incubated two hours with the chemical substance",0.8
same,The level of expressed mRNA in the presence of chemical substance/The level of expressed mRNA in the absence of chemical substance,"yeast gene YBR221C, cells incubated two hours with the chemical substance",0.9
same,The level of expressed mRNA in the presence of chemical substance/The level of expressed mRNA in the absence of chemical substance,yeast gene YCL040W,1.4
same,The level of expressed mRNA in the presence of chemical substance/The level of expressed mRNA in the absence of chemical substance,yeast gene YCR012W,0.8
same,The level of expressed mRNA in the presence of chemical substance/The level of expressed mRNA in the absence of chemical substance,"yeast gene YCR046C, cells incubated two hours with the chemical substance",1.3
same,The level of expressed mRNA in the presence of chemical substance/The level of expressed mRNA in the absence of chemical substance,"yeast gene YCR105W, cells incubated two hours with the chemical substance",1.3
same,The level of expressed mRNA in the presence of chemical substance/The level of expressed mRNA in the absence of chemical substance,yeast gene YDL021W,1.9
same,The level of expressed mRNA in the presence of chemical substance/The level of expressed mRNA in the absence of chemical substance,"yeast gene YDL067C, cells incubated two hours with the chemical substance",1.2
same,The level of expressed mRNA in the presence of chemical substance/The level of expressed mRNA in the absence of chemical substance,"yeast gene YDL078C, cells incubated two hours with the chemical substance",1.1
same,The level of expressed mRNA in the presence of chemical substance/The level of expressed mRNA in the absence of chemical substance,"yeast gene YDL107W, cells incubated two hours with the chemical substance",1.1
same,The level of expressed mRNA in the presence of chemical substance/The level of expressed mRNA in the absence of chemical substance,yeast gene YDL174C,2.2
same,The level of expressed mRNA in the presence of chemical substance/The level of expressed mRNA in the absence of chemical substance,"yeast gene YDL181W, cells incubated two hours with the chemical substance",1.5
same,The level of expressed mRNA in the presence of chemical substance/The level of expressed mRNA in the absence of chemical substance,yeast gene YDR001C,1.1
same,The level of expressed mRNA in the presence of chemical substance/The level of expressed mRNA in the absence of chemical substance,"yeast gene YDR050C, cells incubated two hours with the chemical substance",1.1
same,The level of expressed mRNA in the presence of chemical substance/The level of expressed mRNA in the absence of chemical substance,"yeast gene YDR079W, cells incubated two hours with the chemical substance",1.1
same,The level of expressed mRNA in the presence of chemical substance/The level of expressed mRNA in the absence of chemical substance,"yeast gene YDR178W, cells incubated two hours with the chemical substance",1.2
same,The level of expressed mRNA in the presence of chemical substance/The level of expressed mRNA in the absence of chemical substance,yeast gene YDR231C,1.2
same,The level of expressed mRNA in the presence of chemical substance/The level of expressed mRNA in the absence of chemical substance,"yeast gene YDR298C, cells incubated two hours with the chemical substance",1.1
same,The level of expressed mRNA in the presence of chemical substance/The level of expressed mRNA in the absence of chemical substance,"yeast gene YDR377W, cells incubated two hours with the chemical substance",1.2
same,The level of expressed mRNA in the presence of chemical substance/The level of expressed mRNA in the absence of chemical substance,"yeast gene YDR529C, cells incubated two hours with the chemical substance",1.0
same,The level of expressed mRNA in the presence of chemical substance/The level of expressed mRNA in the absence of chemical substance,"yeast gene YEL024W, cells incubated two hours with the chemical substance",1.1
same,The level of expressed mRNA in the presence of chemical substance/The level of expressed mRNA in the absence of chemical substance,"yeast gene YEL039C, cells incubated two hours with the chemical substance",0.7
same,The level of expressed mRNA in the presence of chemical substance/The level of expressed mRNA in the absence of chemical substance,yeast gene YER178W,1.1
same,The level of expressed mRNA in the presence of chemical substance/The level of expressed mRNA in the absence of chemical substance,yeast gene YFL057C,1.6
same,The level of expressed mRNA in the presence of chemical substance/The level of expressed mRNA in the absence of chemical substance,yeast gene YFR053C,1.4
same,The level of expressed mRNA in the presence of chemical substance/The level of expressed mRNA in the absence of chemical substance,"yeast gene YGL018C, cells incubated two hours with the chemical substance",0.8
same,The level of expressed mRNA in the presence of chemical substance/The level of expressed mRNA in the absence of chemical substance,yeast gene YGL062W,1.1
same,The level of expressed mRNA in the presence of chemical substance/The level of expressed mRNA in the absence of chemical substance,"yeast gene YGL187C, cells incubated two hours with the chemical substance",0.9
same,The level of expressed mRNA in the presence of chemical substance/The level of expressed mRNA in the absence of chemical substance,"yeast gene YGL191W, cells incubated two hours with the chemical substance",1.2
same,The level of expressed mRNA in the presence of chemical substance/The level of expressed mRNA in the absence of chemical substance,"yeast gene YGL205W, cells incubated two hours with the chemical substance",3.9
same,The level of expressed mRNA in the presence of chemical substance/The level of expressed mRNA in the absence of chemical substance,"yeast gene YGL256W, cells incubated two hours with the chemical substance",0.7
same,The level of expressed mRNA in the presence of chemical substance/The level of expressed mRNA in the absence of chemical substance,yeast gene YGR043C,1.6
same,The level of expressed mRNA in the presence of chemical substance/The level of expressed mRNA in the absence of chemical substance,"yeast gene YGR062C, cells incubated two hours with the chemical substance, 25° C., YPD medium",0.9
same,The level of expressed mRNA in the presence of chemical substance/The level of expressed mRNA in the absence of chemical substance,"yeast gene YGR087C, cells incubated two hours with the chemical substance",1.0
same,The level of expressed mRNA in the presence of chemical substance/The level of expressed mRNA in the absence of chemical substance,"yeast gene YGR174C, cells incubated two hours with the chemical substance",1.3
same,The level of expressed mRNA in the presence of chemical substance/The level of expressed mRNA in the absence of chemical substance,yeast gene YGR192C,1.1
same,The level of expressed mRNA in the presence of chemical substance/The level of expressed mRNA in the absence of chemical substance,yeast gene YGR244C,1.9
same,The level of expressed mRNA in the presence of chemical substance/The level of expressed mRNA in the absence of chemical substance,yeast gene YGR254W,1.3
same,The level of expressed mRNA in the presence of chemical substance/The level of expressed mRNA in the absence of chemical substance,yeast gene YHR179W,1.9
same,The level of expressed mRNA in the presence of chemical substance/The level of expressed mRNA in the absence of chemical substance,yeast gene YIL160C,2.4
same,The level of expressed mRNA in the presence of chemical substance/The level of expressed mRNA in the absence of chemical substance,"yeast gene YIR031C, cells incubated two hours with the chemical substance",0.9
same,The level of expressed mRNA in the presence of chemical substance/The level of expressed mRNA in the absence of chemical substance,yeast gene YJL052W,1.2
same,The level of expressed mRNA in the presence of chemical substance/The level of expressed mRNA in the absence of chemical substance,"yeast gene YJL121C, cells incubated two hours with the chemical substance",1.1
same,The level of expressed mRNA in the presence of chemical substance/The level of expressed mRNA in the absence of chemical substance,"yeast gene YJL166W, cells incubated two hours with the chemical substance",1.7
same,The level of expressed mRNA in the presence of chemical substance/The level of expressed mRNA in the absence of chemical substance,"yeast gene YJL216C, cells incubated two hours with the chemical substance",1.2
same,The level of expressed mRNA in the presence of chemical substance/The level of expressed mRNA in the absence of chemical substance,yeast gene YJR009C,1.1
